Results reported in the supplement of paper PMC13380429.
Structures can show the parent of a compound that is named as a salt.

Key:
Conditions in all cases: 72 h
Caco-2 [1] = assay: cell viability relative to DMSO; higher = less toxic
Calu-3 [2] = assay: as above
HepG2 [3] = assay: as above
Vero E6 [4] = assay: as above
Caco-2 [5] = assay: relative viability EC50 (midpoint between 100% and the lowest measured viability); higher = less toxic
Calu-3 [6] = assay: as above
HepG2 [7] = assay: as above
Vero E6 [8] = assay: as above
Caco-2 [9] = assay: drug sensitivity score (DSS) for viability; higher = more toxic; extreme values may be limits of the assay
Calu-3 [10] = assay: as above
HepG2 [11] = assay: as above
Vero E6 [12] = assay: as above
U2OS [13] = assay: cell viability relative to DMSO; higher = less toxic
U2OS [14] = assay: relative viability EC50 (midpoint between 100% and the lowest measured viability); higher = less toxic
U2OS [15] = assay: drug sensitivity score (DSS) for viability; higher = more toxic; extreme values may be limits of the assay

Structure (SMILES) | cell viability (Caco-2 [1]; 1 nM) [%] | cell viability (Caco-2 [1]; 10 nM) [%] | cell viability (Caco-2 [1]; 100 nM) [%] | cell viability (Caco-2 [1]; 1000 nM) [%] | cell viability (Caco-2 [1]; 10000 nM) [%] | cell viability (Calu-3 [2]; 1 nM) [%] | cell viability (Calu-3 [2]; 10 nM) [%] | cell viability (Calu-3 [2]; 100 nM) [%] | cell viability (Calu-3 [2]; 1000 nM) [%] | cell viability (Calu-3 [2]; 10000 nM) [%] | cell viability (HepG2 [3]; 1 nM) [%] | cell viability (HepG2 [3]; 10 nM) [%] | cell viability (HepG2 [3]; 100 nM) [%] | cell viability (HepG2 [3]; 1000 nM) [%] | cell viability (HepG2 [3]; 10000 nM) [%] | cell viability (Vero E6 [4]; 1 nM) [%] | cell viability (Vero E6 [4]; 10 nM) [%] | cell viability (Vero E6 [4]; 100 nM) [%] | cell viability (Vero E6 [4]; 1000 nM) [%] | cell viability (Vero E6 [4]; 10000 nM) [%] | relative viability EC50 (Caco-2 [5]) [µM] | relative viability EC50 (Calu-3 [6]) [µM] | relative viability EC50 (HepG2 [7]) [µM] | relative viability EC50 (Vero E6 [8]) [µM] | drug sensitivity score (Caco-2 [9]) | drug sensitivity score (Calu-3 [10]) | drug sensitivity score (HepG2 [11]) | drug sensitivity score (Vero E6 [12]) | cell viability (U2OS [13]; 1 nM) [%] | cell viability (U2OS [13]; 10 nM) [%] | cell viability (U2OS [13]; 100 nM) [%] | cell viability (U2OS [13]; 1000 nM) [%] | cell viability (U2OS [13]; 10000 nM) [%] | relative viability EC50 (U2OS [14]) [µM] | drug sensitivity score (U2OS [15])
N#Cc1cc(-c2n[nH]c(-c3ccncc3)n2)ccn1 [topiroxostat] | 98.2 | 92.9 | 89.6 | 95.9 | 107 | 103 | 87.4 | 107 | 95.1 | 118 | 102 | 91.1 | 98.8 | 100 | 96.1 | 102 | 103 | 101 | 102 | 99.8 | > 10 | > 10 | > 10 | > 10 | 0 | 0 | 0 | 0 |  |  |  |  |  |  | 
CCCCCCCCCCCCCCCC[N+](C)(C)CCN(Cc1ccc(OC)cc1)c1ncccn1 [thonzonium] | 106 | 98.1 | 110 | 80.3 | 7.2 | 102 | 100 | 96.3 | 85.8 | -0.1 | 94.4 | 101 | 93.8 | 103 | 24.4 | 96 | 97.8 | 94.6 | 97.5 | 85.6 | 1.69 | 2.04 | 3.41 | > 10 | 8.3 | 7.9 | 3.9 | 0.4 |  |  |  |  |  |  | 
CCCC(C)(COC(N)=O)COC(=O)NC(C)C (stereo unspecified) [CARISOPRODOL] | 96.1 | 103 | 97.6 | 101 | 104 | 108 | 88.2 | 93.2 | 85.7 | 98.1 |  |  |  |  |  | 106 | 101 | 98.8 | 105 | 101 | > 10 | > 10 |  | > 10 | 0 | 0 |  | 0 | 102 | 97.7 | 101 | 102 | 104 | > 10 | 0
O=C(OC[C@H]1O[C@@H](OC(=O)c2cc(O)c(O)c(OC(=O)c3cc(O)c(O)c(O)c3)c2)[C@H](OC(=O)c2cc(O)c(O)c(OC(=O)c3cc(O)c(O)c(O)c3)c2)[C@@H](OC(=O)c2cc(O)c(O)c(OC(=O)c3cc(O)c(O)c(O)c3)c2)[C@@H]1OC(=O)c1cc(O)c(O)c(OC(=O)c2cc(O)c(O)c(O)c2)c1)c1cc(O)c(O)c(OC(=O)c2cc(O)c(O)c(O)c2)c1 [tannic-acid] | 99.6 | 93.5 | 90.5 | 99.1 | 43.5 | 94.4 | 99.9 | 98.6 | 108 | 78.8 | 108 | 94.6 | 104 | 104 | 74.2 | 103 | 109 | 102 | 77.4 | 48.8 | 3.04 | > 10 |  | 1.1 | 3.2 | 0.4 | 0.8 | 5.7 | 97.7 | 98.5 | 93.7 | 97.8 | 53.1 |  | 2.7
CC[C@H]1OC(=O)C[C@@H](O)[C@H](C)[C@@H](O[C@@H]2O[C@H](C)[C@@H](O[C@H]3C[C@@](C)(O)[C@@H](O)[C@H](C)O3)[C@H](N(C)C)[C@H]2O)[C@@H](CC=O)C[C@@H](C)C(=O)/C=C/C(C)=C/[C@@H]1CO[C@@H]1O[C@H](C)[C@@H](O)[C@@H](OC)[C@H]1OC [TYLOSIN TARTRATE] | 101 | 96.4 | 109 | 63 | 23.4 | 104 | 108 | 104 | 91 | 74.6 | 99 | 101 | 95.2 | 94.8 | 40.7 | 102 | 102 | 98.7 | 95.2 | 18.9 | 1.03 |  | 2.44 | 2.7 | 8.9 | 2.1 | 4 | 5.2 | 102 | 97.3 | 96.9 | 56.6 | 39.9 | 0.566 | 8.7
CC(=O)Nc1ccc(OC(C)=O)cc1 [diacetamate] | 91.8 | 103 | 94.7 | 101 | 111 | 99.1 | 99.7 | 99.7 | 101 | 84.9 | 114 | 98.5 | 110 | 101 | 105 | 96.1 | 96 | 94.3 | 84.8 | 101 | > 10 | > 10 | > 10 | > 10 | 0 | 0.2 | 0 | 0 |  |  |  |  |  |  | 
CC(C)N(CCCCOCC(=O)NS(C)(=O)=O)c1cnc(-c2ccccc2)c(-c2ccccc2)n1 [selexipag] | 110 | 103 | 94.5 | 107 | 105 | 95 | 105 | 97.3 | 110 | 105 |  |  |  |  |  | 100 | 102 | 93 | 98.4 | 93.2 | > 10 | > 10 |  | > 10 | 0 | 0 |  | 0 |  |  |  |  |  |  | 
CCn1c(=O)c(-c2cc[nH]n2)cc2c(C)nc(N)nc21 [voxtalisib] | 102 | 96.7 | 93.5 | 86.5 | 42.9 | 95 | 91.9 | 91 | 71.9 | 32.6 | 108 | 106 | 101 | 88.5 | 35.4 | 104 | 104 | 91.2 | 80.8 | 33.5 | 1.61 | 1.17 | 1.84 | 1.55 | 5.2 | 6.8 | 5.4 | 6.1 | 99.3 | 97.3 | 97.9 | 93.1 | 60.3 |  | 3.1
O=C(O)CCCN1CCC(O[C@@H](c2ccc(Cl)cc2)c2ccccn2)CC1 [bepotastine] | 91.3 | 92.1 | 99.4 | 93.4 | 107 | 97 | 106 | 94.2 | 93.8 | 113 | 98.7 | 113 | 99 | 102 | 113 | 93.2 | 98.3 | 90.2 | 95.8 | 105 | > 10 | > 10 | > 10 | > 10 | 0 | 0 | 0 | 0 |  |  |  |  |  |  | 
COC(=O)[C@H](NC(=O)c1cc(-c2ccccc2)nc2ccccc12)c1ccccc1 | 110 | 94.9 | 106 | 104 | 109 | 104 | 93 | 101 | 102 | 103 | 91.4 | 99.6 | 96.4 | 89.6 | 103 | 92.6 | 91.3 | 91.5 | 92.7 | 100 | > 10 | > 10 | > 10 | > 10 | 0 | 0 | 0 | 0 |  |  |  |  |  |  | 
CN(C)CC[C@H](CSc1ccccc1)Nc1ccc(S(=O)(=O)NC(=O)c2ccc(N3CCN(Cc4ccccc4-c4ccc(Cl)cc4)CC3)cc2)cc1[N+](=O)[O-] [ABT-737] | 104 | 92.4 | 105 | 101 | 83.8 | 115 | 99.1 | 114 | 95.2 | 39.3 | 109 | 111 | 104 | 95.8 | 93 | 97.2 | 98.6 | 95.3 | 96 | 95.1 | > 10 | 2.52 | > 10 | > 10 | 0.3 | 4 | 0 | 0 |  |  |  |  |  |  | 
CCCn1c(=O)[nH]c2nc(-c3ccc(S(=O)(=O)O)cc3)[nH]c2c1=O [PSB-1115] | 99.4 | 94.6 | 111 | 105 | 95.4 | 112 | 104 | 100 | 110 | 94.4 |  |  |  |  |  | 106 | 105 | 107 | 103 | 95.5 | > 10 | > 10 |  | > 10 | 0 | 0 |  | 0 | 99.9 | 109 | 98.2 | 108 | 102 | > 10 | 0
